This assay deals with T1, VPS34 (Homo sapiens, UniProt Q8NEB9).
T1 construct: GST (N); host or cells: SF9 insect cells (baculovirus)
Nature of the assay: Human VPS34 enzyme assay (Adapta TR-FRET). It counts as biochemical. As to conditions: for inhibition at 1.11 µM: 1 h, at a 1.11 μM concentration, read-out: VPS34 Percent Inhibition. As for the experimental part: VPS34 (accession number GB:BCO33004) was cloned into pDEST20-Thombin as N-terminal GST tagged fusion proteins using the Gateway system (Invitrogen, catalog#11804-013). The sequences were verified before recombinant protein expression using the Baculovirus Expression System with Gateway® Technology.
For expression VPS34 was infected at 1MOI in SF9 cells and harvested 72 hours post infection.
For purification, VPS34 is purified by Glutathione Sepharose 4 Fast Flow (GE Healthcare #17-5132-03) followed by HiTrap Q (GE Healthcare #17-1153-01).
Human VPS34 Enzyme Assay Method
100 nL compounds in DMSO are added to wells of a 384 well microtitre plate (Greiner 780076). At room temperature: 5 ul VPS34 reaction buffer (Invitrogen Assay Buffer Q (diluted 1 in 5 with nanopure water) plus 2 mM DTT and 2 mM MnCl2) containing ATP (20 uM, Promega) and 200 uM PI-PS substrate (Invitrogen PV5122) is added followed immediately by 5 ul VPS34 reaction buffer (as above) containing VPS34 (5 nM, Millennium Protein Sciences Group) and the mixture is incubated with shaking at room temperature for 1 hour. Then 5 ul VPS34 stop-detect mix (as per Invitrogen Adapta Assay kit (PV5009) instructions (contains kinase quench buffer, TR-FRET buffer, Adapta Eu anti-ADP antibody and Alexa Fluor 647 ADP tracer)) is added to quench the reaction. The plates are then incubated for 30 minutes at room temperature with shaking and then read on a BMG PheraStar Plus reader.
For the assay methods described above, test compound percent inhibition, at various concentrations, is calculated relative to control (DMSO and EDTA) treated samples. Compound concentration versus percent inhibition curves are fitted to generate IC50 values. One skilled in the art will appreciate that the values generated either as percentage inhibition at a single concentration or IC50 values are subject to experimental variation.

We go through 29 molecules from patent US20130165464A1, “HETEROARYLS AND USES THEREOF” (MILLENNIUM PHARMACEUTICALS, INC., priority 2011, published 2013).

T1 sequence (Q8NEB9 whole entry): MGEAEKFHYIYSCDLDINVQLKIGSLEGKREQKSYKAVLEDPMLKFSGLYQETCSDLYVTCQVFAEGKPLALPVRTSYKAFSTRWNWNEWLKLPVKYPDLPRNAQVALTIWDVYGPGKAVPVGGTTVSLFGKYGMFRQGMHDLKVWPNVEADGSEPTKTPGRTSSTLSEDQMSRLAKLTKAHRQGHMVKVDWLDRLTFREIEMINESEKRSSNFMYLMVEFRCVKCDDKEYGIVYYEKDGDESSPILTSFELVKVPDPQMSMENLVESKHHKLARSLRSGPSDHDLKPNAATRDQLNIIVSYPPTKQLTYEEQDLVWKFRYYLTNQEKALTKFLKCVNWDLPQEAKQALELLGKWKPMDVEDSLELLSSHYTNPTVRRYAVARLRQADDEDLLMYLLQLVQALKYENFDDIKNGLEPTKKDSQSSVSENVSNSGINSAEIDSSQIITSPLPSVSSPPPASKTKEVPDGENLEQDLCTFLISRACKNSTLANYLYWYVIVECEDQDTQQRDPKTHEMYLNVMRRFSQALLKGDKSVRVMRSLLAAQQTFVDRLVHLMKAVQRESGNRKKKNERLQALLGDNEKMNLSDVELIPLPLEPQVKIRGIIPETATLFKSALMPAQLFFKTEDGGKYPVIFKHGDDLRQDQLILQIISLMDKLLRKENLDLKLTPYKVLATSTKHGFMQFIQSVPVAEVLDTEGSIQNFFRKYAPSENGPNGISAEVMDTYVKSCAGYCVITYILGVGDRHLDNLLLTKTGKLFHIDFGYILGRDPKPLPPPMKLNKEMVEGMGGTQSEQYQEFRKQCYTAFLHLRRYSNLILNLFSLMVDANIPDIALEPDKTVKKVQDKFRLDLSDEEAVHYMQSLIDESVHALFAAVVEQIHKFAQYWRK

As to `CC(=O)Nc1cc(-n2cc(-c3ccccc3Cl)c(-c3nnc[nH]3)n2)ccn1` [I-1, N-{4-[4-(2-chlorophenyl)-3-(1H-1,2,4-triazol-3-yl)-1H-pyrazol-1-yl]pyridin-2-yl}acetamide], the IC50 lay within 150 to 1000 nM and the inhibition at 1.11 µM stood at 98%.

In the case of `CC(=O)Nc1cc(-n2cc(C(N)=O)c(-c3ccccc3Cl)c2)ccn1` [I-2, 1-(2-acetamidopyridin-4-yl)-4-(2-chlorophenyl)-1H-pyrrole-3-carboxamide], the half-maximal inhibitory concentration (IC50) is below 50 nM and the inhibition at 1.11 µM was above 99%.

Consider `CC(=O)Nc1cc(-n2nc(-c3ccccc3Cl)c(-c3nc[nH]n3)c2Br)c(Br)cn1` [I-4, N-{5-bromo-4-[5-bromo-3-(2-chlorophenyl)-4-(1H-1,2,4-triazol-3-yl)-1H-pyrazol-1-yl]pyridin-2-yl}acetamide], for which the half-maximal inhibitory concentration (IC50) lay in the range of 1000 to 5000 nM and the inhibition at 1.11 µM came to 18%.

On to `CC(=O)Nc1cc(-n2cc(-c3nc[nH]n3)c(-c3ccccc3Cl)n2)c(C)cn1` [I-5, N-{4-[3-(2-chlorophenyl)-4-(1H-1,2,4-triazol-3-yl)-1H-pyrazol-1-yl]-5-methylpyridin-2-yl}acetamide], for which the IC50 was below 50 nM and the inhibition at 1.11 µM was above 99%.

In the case of `CC(=O)Nc1cc(-n2cc(C(=O)O)c(-c3ccccc3Cl)n2)c(C)cn1` [I-6, 1-(2-acetamido-5-methylpyridin-4-yl)-3-(2-chlorophenyl)-1H-pyrazole-4-carboxylic acid], the IC50 lay in the range of 150 to 1000 nM and the inhibition at 1.11 µM was found to be 97%.

In the case of `NC(=O)c1cn(-c2ccnc3[nH]ccc23)nc1-c1ccccc1Cl` [I-7, 3-(2-chlorophenyl)-1-(1H-pyrrolo[2,3-b]pyridin-4-yl)-1H-pyrazole-4-carboxamide], the IC50 lay within 150 to 1000 nM and the inhibition at 1.11 µM is 88%.

Take `CC(=O)Nc1cc(-n2cc(C(N)=O)c(-c3ccccc3Cl)n2)ccn1` [I-8, 1-(2-acetamidopyridin-4-yl)-3-(2-chlorophenyl)-1H-pyrazole-4-carboxamide]: the inhibition at 1.11 µM is above 99%.

Take `CC(=O)Nc1cc(-n2cc(C(N)=O)c(-c3ccccc3Cl)n2)c(Cl)cn1` [I-9, 1-(2-acetamido-5-chloropyridin-4-yl)-3-(2-chlorophenyl)-1H-pyrazole-4-carboxamide]: the half-inhibitory concentration (IC50) is 150 to 1000 nM and the inhibition at 1.11 µM is above 99%.

In the case of `CC(=O)Nc1cc(-n2cc(C(N)=O)c(-c3ccccc3Cl)n2)c(C)cn1` [I-11, 1-(2-acetamido-5-methylpyridin-4-yl)-3-(2-chlorophenyl)-1H-pyrazole-4-carboxamide], the IC50 was 150 to 1000 nM and the inhibition at 1.11 µM was 96%.

`CC(=O)Nc1cc(-n2cc(-c3nc[nH]n3)c(-c3ccccc3Cl)n2)ccn1` [I-12, N-{4-[3-(2-chlorophenyl)-4-(1H-1,2,4-triazol-3-yl)-1H-pyrazol-1-yl]pyridin-2-yl}acetamide]: the 50% inhibitory concentration (IC50) is below 50 nM and the inhibition at 1.11 µM was above 99%.

With `CC(=O)Nc1cc(-n2cc(C(N)=O)c(-c3ccc(Cl)cc3Cl)n2)ccn1` [I-13, 1-(2-acetamidopyridin-4-yl)-3-(2,4-dichlorophenyl)-1H-pyrazole-4-carboxamide], the inhibition at 1.11 µM is above 99%.

For the molecule `COC(=O)Nc1cc(-n2cc(-c3nc[nH]n3)c(-c3ccccc3Cl)n2)ccn1` [I-17, methyl {4-[3-(2-chlorophenyl)-4-(1H-1,2,4-triazol-3-yl)-1H-pyrazol-1-yl]pyridin-2-yl}carbamate], the half-inhibitory concentration (IC50) is below 50 nM and the inhibition at 1.11 µM was above 99%.

Consider `CC(=O)Nc1cc(-n2cc(-c3nc[nH]n3)c(-c3ccccc3Cl)n2)c(Br)cn1` [I-18, N-{5-bromo-4-[3-(2-chlorophenyl)-4-(1H-1,2,4-triazol-3-yl)-1H-pyrazol-1-yl]pyridin-2-yl}acetamide], for which the IC50 lay within 150 to 1000 nM and the inhibition at 1.11 µM worked out at 89%.

For the molecule `CC(=O)Nc1cc(-n2cc(-c3ccccc3Cl)c(C(N)=O)n2)ccn1` [I-20, 1-(2-acetamidopyridin-4-yl)-4-(2-chlorophenyl)-1H-pyrazole-3-carboxamide], the IC50 was 1000 to 5000 nM and the inhibition at 1.11 µM was 29%.

Consider `CC(=O)Nc1cc(-n2cc(-c3nnc[nH]3)c(-c3ccccc3Cl)c2)ccn1` [I-22, N-{4-[3-(2-chlorophenyl)-4-(1H-1,2,4-triazol-3-yl)-1H-pyrrol-1-yl]pyridin-2-yl}acetamide], for which the IC50 is below 50 nM and the inhibition at 1.11 µM is above 99%.

For the molecule `O=C(Nc1cc(-n2cc(-c3nc[nH]n3)c(-c3ccccc3Cl)n2)ccn1)C1CC1` [I-23, N-{4-[3-(2-chlorophenyl)-4-(1H-1,2,4-triazol-3-yl)-1H-pyrazol-1-yl]pyridin-2-yl}cyclopropanecarboxamide], the IC50 is below 50 nM and the inhibition at 1.11 µM is above 99%.

With `CC(=O)Nc1cc(-n2cc(-c3ccn[nH]3)c(-c3ccccc3Cl)n2)ccn1` [I-25, N-{4-[3′-(2-chlorophenyl)-1H,1′H-3,4′-bipyrazol-1′-yl]pyridin-2-yl}acetamide], the 50% inhibitory concentration (IC50) was below 50 nM and the inhibition at 1.11 µM was above 99%.

With `Cc1cnc(NC(=O)C(C)C)cc1-n1cc(-c2nc[nH]n2)c(-c2ccccc2Cl)c1` [I-26, N-{4-[3-(2-chlorophenyl)-4-(1H-1,2,4-triazol-3-yl)-1H-pyrrol-1-yl]-5-methylpyridin-2-yl}-2-methylpropanamide], the IC50 lay in the range of 150 to 1000 nM and the inhibition at 1.11 µM worked out at 78%.

On to `CC(=O)Nc1cc(-n2cc(-c3ncc[nH]3)c(-c3ccccc3Cl)n2)c(C)cn1` [I-27, N-{4-[3-(2-chlorophenyl)-4-(1H-imidazol-2-yl)-1H-pyrazol-1-yl]-5-methylpyridin-2-yl}acetamide], for which the IC50 is below 50 nM and the inhibition at 1.11 µM was above 99%.

For `CCC(=O)Nc1cc(-n2cc(C(N)=O)c(-c3ccccc3Cl)c2)c(C)cn1` [I-28, 4-(2-chlorophenyl)-1-[5-methyl-2-(propionylamino)pyridin-4-yl]-1H-pyrrole-3-carboxamide], the IC50 was below 50 nM and the inhibition at 1.11 µM is above 99%.

Turning to `O=C(O)c1cn(-c2ccnc(NCCc3ccc(O)cc3)n2)nc1-c1ccccc1Cl` [I-29, 3-(2-chlorophenyl)-1-(2-{[2-(4-hydroxyphenyl)ethyl]amino}pyrimidin-4-yl)-1H-pyrazole-4-carboxylic acid], the 50% inhibitory concentration (IC50) fell in the range of 1000 to 5000 nM and the inhibition at 1.11 µM is 44%.

Turning to `O=C(O)c1cn(-c2ccnc(NCCc3ccccc3)n2)nc1-c1ccccc1Cl` [I-30, 3-(2-chlorophenyl)-1-{2-[(2-phenylethyl)amino]pyrimidin-4-yl}-1H-pyrazole-4-carboxylic acid], the IC50 was 1000 to 5000 nM and the inhibition at 1.11 µM came out at 14%.

With `CC(=O)Nc1cc(-n2cc(-c3nc[nH]n3)c(-c3ccccc3Cl)c2)c(C)cn1` [I-31, N-{4-[3-(2-chlorophenyl)-4-(1H-1,2,4-triazol-3-yl)-1H-pyrrol-1-yl]-5-methylpyridin-2-yl}acetamide], the IC50 was below 50 nM and the inhibition at 1.11 µM was above 99%.

In the case of `CC(=O)Nc1cc(-n2cc(-c3ncc[nH]3)c(-c3ccccc3Cl)n2)ccn1` [I-32, N-{4-[3-(2-chlorophenyl)-4-(1H-imidazol-2-yl)-1H-pyrazol-1-yl]pyridin-2-yl}acetamide], the half-inhibitory concentration (IC50) is below 50 nM and the inhibition at 1.11 µM was above 99%.

For the molecule `Cc1cnc(NC(=O)C(C)C)cc1-n1cc(C(N)=O)c(-c2ccccc2Cl)c1` [I-33, 4-(2-chlorophenyl)-1-[2-(isobutyrylamino)-5-methylpyridin-4-yl]-1H-pyrrole-3-carboxamide], the IC50 lay within 1000 to 5000 nM and the inhibition at 1.11 µM turned out to be 42%.

Consider `Cc1cnc(NC(=O)C2CC2)cc1-n1cc(C(N)=O)c(-c2ccccc2Cl)n1` [I-34, 3-(2-chlorophenyl)-1-{2-[(cyclopropylcarbonyl)amino]-5-methylpyridin-4-yl}-1H-pyrazole-4-carboxamide], for which the IC50 was in the range of 150 to 1000 nM and the inhibition at 1.11 µM amounted to 92%.

Take `COc1ccc(-c2nn(-c3cc(NC(C)=O)ncc3C)cc2-c2nc[nH]n2)c(Cl)c1` [I-35, N-{4-[3-(2-chloro-4-methoxyphenyl)-4-(1H-1,2,4-triazol-3-yl)-1H-pyrazol-1-yl]-5-methylpyridin-2-yl}acetamide]: the IC50 is below 50 nM and the inhibition at 1.11 µM was above 99%.

For the molecule `COC(=O)Nc1cc(-n2cc(C(N)=O)c(-c3ccccc3Cl)c2)c(C)cn1` [I-36, methyl {4-[3-carbamoyl-4-(2-chlorophenyl)-1H-pyrrol-1-yl]-5-methylpyridin-2-yl}carbamate], the IC50 was below 50 nM and the inhibition at 1.11 µM is above 99%.

Take `CC(=O)Nc1cc(-n2cc(C(N)=O)c(-c3ccccc3Cl)c2)c(Cl)cn1` [I-37, 1-(2-acetamido-5-chloropyridin-4-yl)-4-(2-chlorophenyl)-1H-pyrrole-3-carboxamide]: the IC50 lay in the range of 150 to 1000 nM and the inhibition at 1.11 µM stood at 88%.
